Source: publication PMC4705464, “Sensillar expression and responses of olfactory receptors reveal different peripheral coding in two Helicoverpa species using the same pheromone components” (Scientific Reports, 2016)

Legend:
Experiment in all cases: two-electrode voltage clamp, Xenopus oocytes
Assay type in all cases: cell-based
[1] = target: T1, HassOR16/Orco (Helicoverpa assulta, UniProt C6K7C1); settings: agonist; with Orco
T1 construct: full ORF in pT7Ts, cRNA co-expressed with Orco in Xenopus oocytes; with Odorant receptor coreceptor
T1 sequence (C6K7C1 1-422): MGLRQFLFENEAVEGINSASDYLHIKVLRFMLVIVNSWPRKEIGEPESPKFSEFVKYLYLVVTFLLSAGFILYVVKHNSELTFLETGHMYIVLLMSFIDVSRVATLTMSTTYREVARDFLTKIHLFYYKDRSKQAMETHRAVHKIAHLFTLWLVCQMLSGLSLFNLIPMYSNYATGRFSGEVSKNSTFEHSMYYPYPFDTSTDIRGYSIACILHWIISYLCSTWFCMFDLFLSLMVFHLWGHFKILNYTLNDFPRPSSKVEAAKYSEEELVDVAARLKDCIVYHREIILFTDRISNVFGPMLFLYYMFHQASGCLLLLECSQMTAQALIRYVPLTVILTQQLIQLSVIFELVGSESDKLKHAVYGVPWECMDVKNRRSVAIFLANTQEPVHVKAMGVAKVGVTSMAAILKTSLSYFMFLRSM
T1 sequence (A7UGE1 1-473 partner): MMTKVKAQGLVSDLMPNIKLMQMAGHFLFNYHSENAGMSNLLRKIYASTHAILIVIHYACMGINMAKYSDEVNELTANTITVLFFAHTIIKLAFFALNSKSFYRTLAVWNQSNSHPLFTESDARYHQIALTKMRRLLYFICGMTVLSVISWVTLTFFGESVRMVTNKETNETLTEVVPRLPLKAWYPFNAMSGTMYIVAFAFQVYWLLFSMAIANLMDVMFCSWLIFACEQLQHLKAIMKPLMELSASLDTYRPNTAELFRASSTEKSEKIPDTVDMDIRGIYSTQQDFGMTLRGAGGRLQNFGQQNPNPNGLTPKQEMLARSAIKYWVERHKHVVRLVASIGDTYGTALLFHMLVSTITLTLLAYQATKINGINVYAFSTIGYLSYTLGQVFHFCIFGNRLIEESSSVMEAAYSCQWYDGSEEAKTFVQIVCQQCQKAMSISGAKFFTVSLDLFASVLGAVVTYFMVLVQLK

[2] = target: T2, HarmOR14b/HarmOrco (Helicoverpa armigera, UniProt R4JUU3); settings: agonist; 10^-4 mol/L; with HarmOrco
T2 construct: gene OR14b; full ORF in pT7Ts, cRNA co-expressed with HarmOrco in Xenopus oocytes; alignment of OR14b orthologues over 440 residues; with Odorant receptor coreceptor
T2 sequence (R4JUU3 1-440): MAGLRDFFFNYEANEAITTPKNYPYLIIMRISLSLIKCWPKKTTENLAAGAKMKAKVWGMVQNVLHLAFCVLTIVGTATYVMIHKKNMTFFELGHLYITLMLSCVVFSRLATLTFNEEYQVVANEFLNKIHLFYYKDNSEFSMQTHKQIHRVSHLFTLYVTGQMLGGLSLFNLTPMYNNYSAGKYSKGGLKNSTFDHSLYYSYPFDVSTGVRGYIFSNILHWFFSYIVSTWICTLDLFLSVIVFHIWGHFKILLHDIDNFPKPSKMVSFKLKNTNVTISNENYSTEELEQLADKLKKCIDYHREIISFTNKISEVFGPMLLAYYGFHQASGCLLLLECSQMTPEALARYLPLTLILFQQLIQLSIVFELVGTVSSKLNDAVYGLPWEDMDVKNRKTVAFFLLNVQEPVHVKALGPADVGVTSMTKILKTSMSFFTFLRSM

[3] = target: T3, HassOR6/Orco (Helicoverpa assulta, UniProt R4JLZ7); settings: agonist, main ligand; with Orco
T3 construct: gene OR6; full ORF in pT7Ts, cRNA co-expressed with Orco in Xenopus oocytes; with Odorant receptor coreceptor
T3 sequence (R4JLZ7 1-425): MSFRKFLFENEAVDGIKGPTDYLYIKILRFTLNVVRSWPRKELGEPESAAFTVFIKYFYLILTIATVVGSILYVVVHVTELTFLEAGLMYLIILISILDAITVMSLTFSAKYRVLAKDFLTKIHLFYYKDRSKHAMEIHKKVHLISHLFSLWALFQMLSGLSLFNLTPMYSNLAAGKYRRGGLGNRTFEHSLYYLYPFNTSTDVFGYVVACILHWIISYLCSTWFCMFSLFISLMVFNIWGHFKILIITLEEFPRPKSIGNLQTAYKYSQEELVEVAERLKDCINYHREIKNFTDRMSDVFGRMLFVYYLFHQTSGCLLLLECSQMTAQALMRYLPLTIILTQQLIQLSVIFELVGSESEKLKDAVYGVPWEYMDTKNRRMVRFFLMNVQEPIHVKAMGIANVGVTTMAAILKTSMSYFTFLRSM
T3 sequence (A7UGE1 1-473 partner): T1 sequence (A7UGE1 1-473 partner)

[4] = target: T4, HassOR13/Orco (Helicoverpa assulta, UniProt A0A0B4ZYC6); settings: agonist; with Orco
T4 construct: gene OR13; full ORF in pT7Ts, cRNA co-expressed with Orco in Xenopus oocytes; with Odorant receptor coreceptor
T4 sequence (A0A0B4ZYC6 1-425): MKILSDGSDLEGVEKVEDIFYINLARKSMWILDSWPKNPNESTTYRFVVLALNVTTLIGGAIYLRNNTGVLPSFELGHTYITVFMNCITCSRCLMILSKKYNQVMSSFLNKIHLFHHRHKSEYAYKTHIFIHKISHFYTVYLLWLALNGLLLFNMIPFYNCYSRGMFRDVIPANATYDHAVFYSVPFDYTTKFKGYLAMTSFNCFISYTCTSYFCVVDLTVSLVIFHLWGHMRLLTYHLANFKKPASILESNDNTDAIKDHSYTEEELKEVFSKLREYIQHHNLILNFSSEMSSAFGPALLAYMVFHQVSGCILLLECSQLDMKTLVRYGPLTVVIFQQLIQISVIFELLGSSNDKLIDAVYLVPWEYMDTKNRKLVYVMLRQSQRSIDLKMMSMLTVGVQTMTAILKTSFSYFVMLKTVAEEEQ
T4 sequence (A7UGE1 1-473 partner): T1 sequence (A7UGE1 1-473 partner)

CCCC/C=C\CCCCCCCC=O [Z9-14:Ald]
current response [1]: HassOR13/Orco and HassOR16/Orco were narrowly tuned to Z11-16:Ald and Z9-14:Ald respectively
inward current response [2]: this receptor, when expressed in Xenopus oocytes, responds specifically to Z9-14:Ald

CCCCCC/C=C\CCCCCCCCO [Z9-16:OH]
current response [3]: HassOR6/Orco responded mainly to Z9-16:OH

CCCC/C=C\CCCCCCCCCC=O [Z11-16:Ald, (Z)-11-hexadecenal]
current response [4]: HassOR13/Orco and HassOR16/Orco were narrowly tuned to Z11-16:Ald and Z9-14:Ald respectively
